Several values for one entry are separate records, joined by “and”; a condition that tells them apart may be missing. Equal entries are not always repeated.

For orientation: cell viability means a per cent measure of how many cells are alive, often set against a control.

For the series, the system named is RAW264.7 cells. The experiment in a line: Cell viability measurement using MTT assay. Conditions: vs untreated group. In kind it is cell-based, mouse. The protocol: In order to evaluate a cell viability of the glycerol glucoside-based compound sample (EPS-S), an MTT assay was performed.
Specifically, subcultured RAW264.7 cells and HDF cells were aliquoted into a 96-well plate at 1×10^5, respectively, and cultured for 24 hours at 37° C. in an incubator containing 5% carbon dioxide, and then, a culture media was replaced with a serum-free media. Then, each sample was treated onto each cell by concentration. After culturing for 24 hours, an MTT solution was put into each well, reacted for 2 hours under light blocking, a supernatant was removed, a formed formazan was completely dissolved in DMSO, and an absorbance was measured at 540 nm with a microplate reader. In such a case, SDS was used as a positive control group. The test result value was calculated as in Equation 1 below and expressed as the cell viability compared to an untreated group, and was expressed as a mean±standard deviation.
In general terms: Formazan colour is commonly taken as a measure of viable cells.

On to `CCCCCCCCCCCCOS(=O)(=O)[O-].[Na+]` [SDS], for which the cell viability by setting is: (24 h, 1 ppm) 99.95% and 99.95 ± 0.72%; (24 h, 10 ppm) 96.29% and 96.29 ± 0.16%; (24 h, 100 ppm) 7.75% and 7.75 ± 0.14%; (24 h, 1,000 ppm) 6.67% and 6.67 ± 0.16%.

The record behind these values is patent US20230140972A1, “GLYCEROL GLUCOSIDE-BASED COMPOUND AND COMPOSITION COMPRISING SAME FOR ULTRAVIOLET LIGHT SHIELD OR ANTI-INFLAMMATION” (ATHENA CO., LTD., priority 2020, published 2023).
